This passage reports EC50 results from patent US11541028B2, “Peptide pharmaceuticals for treatment of NASH and other disorders” (Mederis Diabetes LLC, priority 2018, dated 2023).

The target in assay [1] is T1, human GLP-1 receptor (Homo sapiens, UniProt P43220).
T1 construct: host or cells: CHO cells
The assay is described as follows: DiscoveRx LeadHunter cellular assay, cAMP stimulation, GLP-1 receptor in CHO cells. In kind it is cell-based. The settings on record: human GLP-1 receptor in CHO cells (DiscoveRx); read-out: EC50 cAMP GLP-1 R.
Description: (§1) A further series of cellular assays was carried out with standard cellular assays (DiscoveRx, LeadHunter assays) using readout of cAMP stimulation or arrestin activation. Compounds were weighed precisely in an amount of about 1 mg and shipped to DiscoveRx for dilution and assay.

In assay [2] the target is T2, human glucagon receptor (Homo sapiens, UniProt P47871).
T2 construct: host or cells: CHO cells
T2 sequence (P47871 26-477): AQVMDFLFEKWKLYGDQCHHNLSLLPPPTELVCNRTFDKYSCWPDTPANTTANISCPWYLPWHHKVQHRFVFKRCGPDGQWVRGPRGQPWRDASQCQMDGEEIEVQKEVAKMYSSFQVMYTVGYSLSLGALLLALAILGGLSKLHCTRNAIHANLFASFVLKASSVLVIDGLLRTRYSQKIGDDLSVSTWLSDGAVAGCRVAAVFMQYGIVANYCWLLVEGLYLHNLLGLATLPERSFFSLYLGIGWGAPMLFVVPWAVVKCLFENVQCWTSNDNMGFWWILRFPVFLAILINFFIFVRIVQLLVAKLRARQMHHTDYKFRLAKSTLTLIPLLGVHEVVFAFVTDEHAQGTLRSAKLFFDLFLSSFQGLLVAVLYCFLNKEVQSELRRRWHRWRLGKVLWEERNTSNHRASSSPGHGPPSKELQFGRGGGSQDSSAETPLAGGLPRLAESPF
Description: DiscoveRx LeadHunter cellular assay, cAMP stimulation, glucagon receptor in CHO cells. Type of assay: cell-based.
Description: as §1

pEC50: −log10 of the molar value. Bridge positions count the residues as written; N and C are the ends. Square brackets hold non-standard residues; d marks the D form. Peptide text beside a SMILES is read from it. * marks the point of attachment. X1 = CCCCCCCCCCCCCCCCO[C@@H]1O[C@H](CO[C@H]2O[C@H](C(=O)*)[C@H](O)[C@H](O)[C@H]2O)[C@@H](O)[C@H](O)[C@H]1O; X2 = CCCCCCCCCCCCCCO[C@@H]1O[C@H](CO[C@H]2O[C@H](C(=O)*)[C@H](O)[C@H](O)[C@H]2O)[C@@H](O)[C@H](O)[C@H]1O; βGlcA(1-O-hexadecyl) = CCCCCCCCCCCCCCCCO[C@@H]1O[C@H](C(=O)*)[C@@H](O)[C@H](O)[C@H]1O; GlcA(1β-O-tetradecyl) = CCCCCCCCCCCCCCO[C@@H]1O[C@H](C(=O)*)[C@@H](O)[C@H](O)[C@H]1O; Aib = CC(C)(N)C(=O)O

T1 sequence (P43220 24-463): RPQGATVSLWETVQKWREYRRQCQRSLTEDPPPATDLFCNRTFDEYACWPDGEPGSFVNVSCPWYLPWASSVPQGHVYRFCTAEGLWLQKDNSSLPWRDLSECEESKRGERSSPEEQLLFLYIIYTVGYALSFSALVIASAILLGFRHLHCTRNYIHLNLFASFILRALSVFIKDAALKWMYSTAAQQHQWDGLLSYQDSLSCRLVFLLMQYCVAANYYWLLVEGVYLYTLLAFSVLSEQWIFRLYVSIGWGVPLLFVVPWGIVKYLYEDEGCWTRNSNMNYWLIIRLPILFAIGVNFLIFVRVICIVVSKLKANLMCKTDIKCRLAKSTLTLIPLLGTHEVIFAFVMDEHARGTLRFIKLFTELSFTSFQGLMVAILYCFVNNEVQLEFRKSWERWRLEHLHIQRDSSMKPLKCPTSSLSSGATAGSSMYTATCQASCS

In general, pEC50 refers to the EC50 on a negative log10 scale, so that one unit is a factor of ten. Turning to `CCCCCCCCCCCCO[C@@H]1O[C@H](C(=O)N[C@@H](CCC(=O)N[C@@H](CCC(=O)NCCCC[C@H](NC(=O)[C@@H](NC(=O)[C@H](Cc2ccccc2)NC(=O)[C@H](CCC(=O)O)NC(=O)[C@@H]2CCCCNC(=O)CC[C@H](NC(=O)[C@H](CC(=O)O)NC(=O)[C@H](CC(C)C)NC(=O)[C@H](Cc3ccc(O)cc3)NC(=O)[C@H](CCCCN)NC(=O)[C@H](CO)NC(=O)[C@H](Cc3ccc(O)cc3)NC(=O)[C@H](CC(=O)O)NC(=O)[C@H](CO)NC(=O)[C@@H](NC(=O)[C@H](Cc3ccccc3)NC(=O)[C@@H](NC(=O)CNC(=O)[C@H](CCC(N)=O)NC(=O)C(C)(C)NC(=O)[C@@H](N)Cc3c[nH]cn3)[C@@H](C)O)[C@@H](C)O)C(=O)N[C@@H](CCC(N)=O)C(=O)N[C@@H](C)C(=O)N[C@@H](C)C(=O)N2)[C@@H](C)CC)C(=O)N[C@@H](Cc2c[nH]c3ccccc23)C(=O)N[C@@H](CC(C)C)C(=O)N[C@@H](CC(C)C)C(=O)N[C@@H](CCC(N)=O)C(=O)N[C@H](C(N)=O)[C@@H](C)O)C(=O)O)C(=O)O)[C@@H](O)[C@H](O)[C@H]1O` [EU-A1723], the values for the pEC50 in assay [1] and in assay [2] were 10.55 and 10.21, respectively.
The corresponding values for `CCCCCCCCCCCCCCO[C@@H]1O[C@H](CO[C@H]2O[C@H](C(=O)NCCCC[C@H](NC(=O)[C@H](C)NC(=O)[C@H](C)NC(=O)[C@H](CCC(N)=O)NC(=O)[C@H](CO)NC(=O)[C@H](CC(=O)O)NC(=O)[C@@H]3CCCCNC(=O)CC[C@H](NC(=O)[C@H](CC(=O)O)NC(=O)[C@H](CO)NC(=O)[C@@H](NC(=O)[C@H](Cc4ccccc4)NC(=O)[C@@H](NC(=O)CNC(=O)[C@H](CCC(N)=O)NC(=O)C(C)(C)NC(=O)[C@@H](N)Cc4c[nH]cn4)[C@@H](C)O)[C@@H](C)O)C(=O)N[C@@H](CO)C(=O)N[C@@H](CCCCN)C(=O)N[C@@H](Cc4ccc(O)cc4)C(=O)N3)C(=O)N[C@@H](CCC(=O)O)C(=O)N[C@@H](Cc3ccccc3)C(=O)N[C@H](C(=O)N[C@@H](CCC(N)=O)C(=O)N[C@@H](Cc3c[nH]c4ccccc34)C(=O)N[C@@H](CC(C)C)C(=O)N[C@@H](CC(C)C)C(=O)N[C@@H](CCC(N)=O)C(=O)N[C@H](C(N)=O)[C@@H](C)O)[C@@H](C)CC)[C@H](O)[C@H](O)[C@H]2O)[C@@H](O)[C@H](O)[C@H]1O` [EU-A1729] (H-H[Aib]QGTFTSDESKYKDSQAAK(X2)EFIQWLLQT-NH2; lactam 10-14) are 11.22 and 9.25.
As for `CCCCCCCCCCCCCCCCO[C@@H]1O[C@H](CO[C@H]2O[C@H](C(=O)NCCCC[C@H](NC(=O)[C@H](C)NC(=O)[C@H](C)NC(=O)[C@H](CCC(N)=O)NC(=O)[C@H](CO)NC(=O)[C@H](CC(=O)O)NC(=O)[C@@H]3CCCCNC(=O)CC[C@H](NC(=O)[C@H](CC(=O)O)NC(=O)[C@H](CO)NC(=O)[C@@H](NC(=O)[C@H](Cc4ccccc4)NC(=O)[C@@H](NC(=O)CNC(=O)[C@H](CCC(N)=O)NC(=O)C(C)(C)NC(=O)[C@@H](N)Cc4c[nH]cn4)[C@@H](C)O)[C@@H](C)O)C(=O)N[C@@H](CO)C(=O)N[C@@H](CCCCN)C(=O)N[C@@H](Cc4ccc(O)cc4)C(=O)N3)C(=O)N[C@@H](CCC(=O)O)C(=O)N[C@@H](Cc3ccccc3)C(=O)N[C@H](C(=O)N[C@@H](CCC(N)=O)C(=O)N[C@@H](Cc3c[nH]c4ccccc34)C(=O)N[C@@H](CC(C)C)C(=O)N[C@@H](CC(C)C)C(=O)N[C@@H](CCC(N)=O)C(=O)N[C@H](C(N)=O)[C@@H](C)O)[C@@H](C)CC)[C@H](O)[C@H](O)[C@H]2O)[C@@H](O)[C@H](O)[C@H]1O` [EU-A1730] (H-H[Aib]QGTFTSDESKYKDSQAAK(X1)EFIQWLLQT-NH2; lactam 10-14; N-terminus assumed), the pEC50 is 11.10 in assay [1] and 8.93 in assay [2].
Turning to `CCCCCCCCCCCCCCO[C@@H]1O[C@H](C(=O)NCCCC[C@H](NC(=O)[C@H](C)NC(=O)[C@H](C)NC(=O)[C@H](CCC(N)=O)NC(=O)[C@H](CO)NC(=O)[C@H](CC(=O)O)NC(=O)[C@@H]2CCCCNC(=O)CC[C@H](NC(=O)[C@H](CC(=O)O)NC(=O)[C@H](CO)NC(=O)[C@@H](NC(=O)[C@H](Cc3ccccc3)NC(=O)[C@@H](NC(=O)CNC(=O)[C@H](CCC(N)=O)NC(=O)C(C)(C)NC(=O)[C@@H](N)Cc3c[nH]cn3)[C@@H](C)O)[C@@H](C)O)C(=O)N[C@@H](CO)C(=O)N[C@@H](CCCCN)C(=O)N[C@@H](Cc3ccc(O)cc3)C(=O)N2)C(=O)N[C@@H](CCC(=O)O)C(=O)N[C@@H](Cc2ccccc2)C(=O)N[C@H](C(=O)N[C@@H](CCC(N)=O)C(=O)N[C@@H](Cc2c[nH]c3ccccc23)C(=O)N[C@@H](CC(C)C)C(=O)N[C@@H](CC(C)C)C(=O)N[C@@H](CCC(N)=O)C(=O)N[C@H](C(N)=O)[C@@H](C)O)[C@@H](C)CC)[C@@H](O)[C@H](O)[C@H]1O` [EU-A1734] (H-H[Aib]QGTFTSDESKYKDSQAAK(GlcA(1β-O-tetradecyl))EFIQWLLQT-NH2; lactam 10-14; N-terminus assumed), the negative logarithm of the EC50 (pEC50) in assay [1] was 11.22; in assay [2], 9.41.
The corresponding values for `CCCCCCCCCCCCCCCCO[C@@H]1O[C@H](C(=O)NCCCC[C@H](NC(=O)[C@H](C)NC(=O)[C@H](C)NC(=O)[C@H](CCC(N)=O)NC(=O)[C@H](CO)NC(=O)[C@H](CC(=O)O)NC(=O)[C@@H]2CCCCNC(=O)CC[C@H](NC(=O)[C@H](CC(=O)O)NC(=O)[C@H](CO)NC(=O)[C@@H](NC(=O)[C@H](Cc3ccccc3)NC(=O)[C@@H](NC(=O)CNC(=O)[C@H](CCC(N)=O)NC(=O)C(C)(C)NC(=O)[C@@H](N)Cc3c[nH]cn3)[C@@H](C)O)[C@@H](C)O)C(=O)N[C@@H](CO)C(=O)N[C@@H](CCCCN)C(=O)N[C@@H](Cc3ccc(O)cc3)C(=O)N2)C(=O)N[C@@H](CCC(=O)O)C(=O)N[C@@H](Cc2ccccc2)C(=O)N[C@H](C(=O)N[C@@H](CCC(N)=O)C(=O)N[C@@H](Cc2c[nH]c3ccccc23)C(=O)N[C@@H](CC(C)C)C(=O)N[C@@H](CC(C)C)C(=O)N[C@@H](CCC(N)=O)C(=O)N[C@H](C(N)=O)[C@@H](C)O)[C@@H](C)CC)[C@@H](O)[C@H](O)[C@H]1O` [EU-A1735] (H-H[Aib]QGTFTSDESKYKDSQAAK(βGlcA(1-O-hexadecyl))EFIQWLLQT-NH2; lactam 10-14; N-terminus assumed) are 11.10 and 9.03.
With `CCCCCCCCCCCCCCO[C@@H]1O[C@H](CO[C@H]2O[C@H](C(=O)NCCCC[C@H](NC(=O)[C@H](C)NC(=O)[C@H](C)NC(=O)[C@H](CCC(N)=O)NC(=O)[C@@H]3CCCCNC(=O)CC[C@H](NC(=O)[C@H](CO)NC(=O)[C@H](Cc4ccc(O)cc4)NC(=O)[C@H](CC(=O)O)NC(=O)[C@H](CO)NC(=O)[C@@H](NC(=O)[C@H](Cc4ccccc4)NC(=O)[C@@H](NC(=O)CNC(=O)[C@H](CCC(N)=O)NC(=O)C(C)(C)NC(=O)[C@@H](N)Cc4c[nH]cn4)[C@@H](C)O)[C@@H](C)O)C(=O)N[C@@H](Cc4ccc(O)cc4)C(=O)N[C@@H](CC(C)C)C(=O)N[C@@H](CC(=O)O)C(=O)N3)C(=O)N[C@@H](CCC(=O)O)C(=O)N[C@@H](Cc3ccccc3)C(=O)N[C@H](C(=O)N[C@@H](CCC(N)=O)C(=O)N[C@@H](Cc3c[nH]c4ccccc34)C(=O)N[C@@H](CC(C)C)C(=O)N[C@@H](CC(C)C)C(=O)N[C@@H](CCC(N)=O)C(=O)N[C@H](C(N)=O)[C@@H](C)O)[C@@H](C)CC)[C@H](O)[C@H](O)[C@H]2O)[C@@H](O)[C@H](O)[C@H]1O` [EU-A1739] (H-H[Aib]QGTFTSDYSEYLDKQAAK(X2)EFIQWLLQT-NH2; lactam 12-16; N-terminus assumed), the pEC50 was 10.25 in assay [1] and 8.65 in assay [2].
